PMC8086025, “A benzopyran with antiarrhythmic activity is an inhibitor of Kir3.1-containing potassium channels” (The Journal of Biological Chemistry, 2021)
“Also recorded” adds a separate entry of the source. Ends that are not written are not given here.

Key:
[1] = biological target: T1, 5-HT2B (Homo sapiens, UniProt P41595); experiment: Radioligand binding, [125I](±)DOI; details: reference compound run for the assay
T1 construct: expressed in transfected cells; host or cells: CHO cells

[2] = biological target: T2, Muscarinic M5 (Homo sapiens, UniProt P08912); experiment: Radioligand binding, [3H]4-DAMP; details: reference compound run for the assay
T2 construct: expressed in transfected cells; host or cells: CHO cells

[3] = system: IKACh; experiment: In vivo ECG, carbachol-induced heart rate slowing in anesthetized mice; details: 300 μl of 200 μM i.p.
Procedure: We tested the in vivo effects of BP-G1 versus those of BP-G1(SR) on heart rate in anesthetized adult mice (Fig. 8). ECG was continuously recorded. Panel A is the ECG showing that after carbachol (300 μl of 200 μM) was administered, i.p. (red mark), the heart decelerated, with a visible RR prolongation. About 10 min after carbachol injection, BP-G1 was delivered via the jugular vein (40 μl of 240 μM) (green mark). Within 5 min, there was a reversal of carbachol’s effects on the heart rate. Panel B is a control mouse showing heart rate slowing after carbachol administration (red mark).
Mice were anesthetized (1.5% isofluorane), and a 1.2 French octapolar catheter (Millar) with a drug delivery port was placed transvenously, through the jugular vein, into the right atrium. Continuous ECG was recorded using the Animal Bio Amp and PowerLab 4/35 Advanced Instruments apparatus. […] Saline control at the same volume was performed. Results are averages ±SD.

[4] = biological target: T3, Kir3.1/4 channel (Homo sapiens, UniProt P48544+P48549); experiment: TEVC in Xenopus oocytes, Kir3.1/4; assay type: cell-based; parameters: expressed in transfected cells; host or cells: Xenopus laevis oocytes (cRNA injection); details: 1 μM, TEVC
T3 sequence (P48549 1-501): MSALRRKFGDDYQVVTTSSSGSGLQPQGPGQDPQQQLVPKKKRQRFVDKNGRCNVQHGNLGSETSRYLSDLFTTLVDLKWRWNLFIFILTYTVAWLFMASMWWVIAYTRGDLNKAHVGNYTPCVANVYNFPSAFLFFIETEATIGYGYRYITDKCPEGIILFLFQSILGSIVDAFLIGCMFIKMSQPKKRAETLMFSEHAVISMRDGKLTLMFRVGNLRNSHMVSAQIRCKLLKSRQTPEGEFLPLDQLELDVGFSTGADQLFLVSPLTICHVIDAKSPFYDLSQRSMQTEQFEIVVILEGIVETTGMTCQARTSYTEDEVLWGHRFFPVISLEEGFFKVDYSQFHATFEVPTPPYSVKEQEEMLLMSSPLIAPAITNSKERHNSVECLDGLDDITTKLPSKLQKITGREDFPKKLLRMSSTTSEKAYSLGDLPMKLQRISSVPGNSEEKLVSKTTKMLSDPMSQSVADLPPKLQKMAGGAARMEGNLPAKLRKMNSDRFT
T3 sequence (P48544 1-419): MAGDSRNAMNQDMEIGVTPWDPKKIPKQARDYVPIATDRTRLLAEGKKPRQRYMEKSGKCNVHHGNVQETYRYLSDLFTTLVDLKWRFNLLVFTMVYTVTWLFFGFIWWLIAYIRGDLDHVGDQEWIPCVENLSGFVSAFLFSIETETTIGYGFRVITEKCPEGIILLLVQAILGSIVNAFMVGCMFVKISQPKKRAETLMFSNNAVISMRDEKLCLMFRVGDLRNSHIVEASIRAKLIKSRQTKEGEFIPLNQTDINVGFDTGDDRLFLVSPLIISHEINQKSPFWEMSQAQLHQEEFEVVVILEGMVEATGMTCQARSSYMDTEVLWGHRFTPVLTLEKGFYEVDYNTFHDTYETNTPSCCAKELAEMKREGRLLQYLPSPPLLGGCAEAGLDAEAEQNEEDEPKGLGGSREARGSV
Procedure: X. laevis oocytes were isolated and microinjected as previously described ([6]). Human Kir3.1, mouse Kir3.2, and human Kir3.4 DNA constructs were used for electrophysiology experiments. All cRNA constructs were injected in the amount of 2 ng per oocyte. Injected oocytes were incubated for 2 to 3 days at 18 °C to allow for expression. Whole-cell oocyte currents were then measured using a GeneClamp 500 amplifier (Axon Instruments). Microelectrodes had resistances of 0.5 to 1 megohm using a 3M KCl solution in 1.4% agarose. Oocytes were perfused with a low K^+ (LK) solution ND96 (2 mM KCl, 96 mM NaCl, 1 mM MgCl2, 1.8 mM CaCl2, 5 mM HEPES-Na) to establish a baseline for the recordings. Basal current was measured in a high potassium (HK) solution ND96K (96 mM KCl, 10 mM HEPES-K, 1 mM MgCl2, 1.8 mM CaCl2). To block the current, the oocyte chamber was perfused with 4 mM BaCl2 in ND96K. Only the Barium-sensitive current was used for statistical analysis. To measure the inhibitory activity of the channels, 1 μM BP-G1 in ND96K (HK) was used. Typically, oocytes were held at 0 mV (EK) and the current was monitored constantly using a ramp protocol with a command potential from −80 to +80 mV. Current amplitude was measured at the end of a 1 s sweep. All currents were analyzed when they reached steady state. Error bars in the figures represent SD (N > 4).

[5] = biological target: Nav1.5 (Homo sapiens, UniProt Q14524); details: read-out: Published IC50, Nav1.5 (1Hz); published NTC-801 data ref 27; cited from earlier work
[6] = system: Cav1.2; details: read-out: Published IC50, Cav1.2; ICa,L; published NTC-801 data ref 27; cited from earlier work
[7] = system: HCN4; parameters: method as in earlier work; details: published NTC-801 data ref 27; cited from earlier work
[8] = biological target: T4, Kir2.1 (Homo sapiens, UniProt P63252); details: published NTC-801 data ref 27; cited from earlier work
T4 construct: host or cells: HEK293

[9] = biological target: Kv1.5 (Homo sapiens, UniProt P22460); details: published NTC-801 data ref 27; cited from earlier work
[10] = biological target: T5, Kir6.2/SUR2A (Homo sapiens, UniProt O60706+Q14654); details: IKATP; published NTC-801 data ref 27; cited from earlier work
T5 construct: Andrew Tinker, UCL; host or cells: HEK293

[11] = system: GP IKACh; parameters: method as in earlier work; details: published NTC-801 data ref 27; cited from earlier work
[12] = system: Kv7.1/KCNE1; details: published NTC-801 data ref 27; cited from earlier work
[13] = system: hERG; details: read-out: Published IC50, hERG; published NTC-801 data ref 27; cited from earlier work
[14] = system: Kir3.1/3.4; parameters: method as in earlier work; details: oocyte; published NTC-801 data ref 27; cited from earlier work
[15] = system: Kir3.1/3.2; parameters: method as in earlier work; details: published NTC-801 data ref 27; cited from earlier work
[16] = biological target: Kv4.3 (Homo sapiens, UniProt Q9UK17); details: published NTC-801 data ref 27; cited from earlier work
[17] = biological target: T6, 5-HT2C (Homo sapiens, UniProt P28335); experiment: Radioligand binding, [3H]mesulergine; details: read-out: Reference: IC50
T6 construct: expressed in transfected cells; host or cells: HEK-293 cells

[18] = biological target: Purinergic Channels P2X; experiment: Radioligand binding, [3H]a,b-MeATP, rat urinary bladder; details: reference compound run for the assay
[19] = biological target: Purinergic Channels P2Y; experiment: Radioligand binding, [35S]dATPaS; parameters: species or system rat; details: reference compound run for the assay
[20] = biological target: Benzodiazepine BDZ Central; experiment: Radioligand binding, [3H]flunitrazepam; parameters: species or system rat; details: read-out: Reference: IC50
[21] = biological target: GABA Cl- channel (GABA-gated); experiment: Radioligand binding, [35S]TBPS; parameters: species or system rat; details: reference compound run for the assay
[22] = biological target: Adrenergic α2; experiment: Radioligand binding, [3H]prazosin; parameters: species or system rat; details: reference compound run for the assay
[23] = biological target: T7, Chemokines CCR1 (Homo sapiens, UniProt P32246); experiment: Radioligand binding, [125I]MIP-1a; details: reference compound run for the assay
T7 construct: expressed in transfected cells; host or cells: HEK-293 cells
T7 sequence (P32246 1-355): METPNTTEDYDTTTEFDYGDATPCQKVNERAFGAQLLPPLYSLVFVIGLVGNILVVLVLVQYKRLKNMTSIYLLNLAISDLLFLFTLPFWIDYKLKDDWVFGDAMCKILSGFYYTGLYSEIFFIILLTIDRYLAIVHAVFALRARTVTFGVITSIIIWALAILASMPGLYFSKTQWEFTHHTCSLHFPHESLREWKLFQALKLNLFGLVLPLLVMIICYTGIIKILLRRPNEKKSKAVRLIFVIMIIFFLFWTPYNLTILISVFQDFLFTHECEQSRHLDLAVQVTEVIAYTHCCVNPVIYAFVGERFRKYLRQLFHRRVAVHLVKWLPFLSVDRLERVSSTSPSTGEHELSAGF

[24] = system: TNF-α; experiment: Radioligand binding, [125I]TNF-a, U-937 cells; details: reference compound run for the assay
[25] = biological target: SKCa; experiment: Radioligand binding, [125I]apamin; parameters: species or system rat; details: reference compound run for the assay
[26] = biological target: Bombesin BB; experiment: Radioligand binding, [125I][Tyr4]bombesin; parameters: species or system rat; details: reference compound run for the assay
[27] = system: Somatostatin sst; experiment: Radioligand binding, [125I]Tyr11-somatostatin-14, AtT-20 cells; details: reference compound run for the assay

Kv1.5, sequence (P22460 whole entry): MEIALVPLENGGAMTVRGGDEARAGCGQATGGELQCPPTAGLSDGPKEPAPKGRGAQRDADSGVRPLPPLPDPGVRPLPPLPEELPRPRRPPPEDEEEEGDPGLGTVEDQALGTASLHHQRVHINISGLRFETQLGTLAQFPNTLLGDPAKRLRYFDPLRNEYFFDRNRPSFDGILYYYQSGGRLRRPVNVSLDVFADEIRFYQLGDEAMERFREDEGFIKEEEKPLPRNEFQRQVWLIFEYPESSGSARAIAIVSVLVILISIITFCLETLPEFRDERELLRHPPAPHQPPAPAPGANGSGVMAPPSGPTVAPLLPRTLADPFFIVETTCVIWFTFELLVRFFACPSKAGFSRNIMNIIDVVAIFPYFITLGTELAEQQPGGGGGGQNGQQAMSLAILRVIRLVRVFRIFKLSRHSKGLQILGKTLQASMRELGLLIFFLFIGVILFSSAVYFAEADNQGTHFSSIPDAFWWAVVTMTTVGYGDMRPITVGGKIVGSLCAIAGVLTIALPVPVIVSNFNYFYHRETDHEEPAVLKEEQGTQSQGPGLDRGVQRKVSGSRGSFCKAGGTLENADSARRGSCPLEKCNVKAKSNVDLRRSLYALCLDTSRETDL
T1 sequence (P41595 whole entry): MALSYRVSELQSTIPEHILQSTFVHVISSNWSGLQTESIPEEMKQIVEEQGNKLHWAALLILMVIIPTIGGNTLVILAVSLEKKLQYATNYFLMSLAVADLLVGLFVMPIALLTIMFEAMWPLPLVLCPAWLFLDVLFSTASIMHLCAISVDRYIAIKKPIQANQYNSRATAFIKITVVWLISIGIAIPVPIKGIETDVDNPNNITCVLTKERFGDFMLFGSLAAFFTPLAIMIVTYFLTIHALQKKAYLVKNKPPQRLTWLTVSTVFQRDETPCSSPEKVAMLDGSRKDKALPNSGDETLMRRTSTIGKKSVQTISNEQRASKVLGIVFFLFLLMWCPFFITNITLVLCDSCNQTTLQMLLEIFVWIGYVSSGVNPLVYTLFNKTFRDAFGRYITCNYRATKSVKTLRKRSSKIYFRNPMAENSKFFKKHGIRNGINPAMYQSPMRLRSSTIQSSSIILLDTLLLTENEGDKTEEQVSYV
Nav1.5, sequence (Q14524 whole entry): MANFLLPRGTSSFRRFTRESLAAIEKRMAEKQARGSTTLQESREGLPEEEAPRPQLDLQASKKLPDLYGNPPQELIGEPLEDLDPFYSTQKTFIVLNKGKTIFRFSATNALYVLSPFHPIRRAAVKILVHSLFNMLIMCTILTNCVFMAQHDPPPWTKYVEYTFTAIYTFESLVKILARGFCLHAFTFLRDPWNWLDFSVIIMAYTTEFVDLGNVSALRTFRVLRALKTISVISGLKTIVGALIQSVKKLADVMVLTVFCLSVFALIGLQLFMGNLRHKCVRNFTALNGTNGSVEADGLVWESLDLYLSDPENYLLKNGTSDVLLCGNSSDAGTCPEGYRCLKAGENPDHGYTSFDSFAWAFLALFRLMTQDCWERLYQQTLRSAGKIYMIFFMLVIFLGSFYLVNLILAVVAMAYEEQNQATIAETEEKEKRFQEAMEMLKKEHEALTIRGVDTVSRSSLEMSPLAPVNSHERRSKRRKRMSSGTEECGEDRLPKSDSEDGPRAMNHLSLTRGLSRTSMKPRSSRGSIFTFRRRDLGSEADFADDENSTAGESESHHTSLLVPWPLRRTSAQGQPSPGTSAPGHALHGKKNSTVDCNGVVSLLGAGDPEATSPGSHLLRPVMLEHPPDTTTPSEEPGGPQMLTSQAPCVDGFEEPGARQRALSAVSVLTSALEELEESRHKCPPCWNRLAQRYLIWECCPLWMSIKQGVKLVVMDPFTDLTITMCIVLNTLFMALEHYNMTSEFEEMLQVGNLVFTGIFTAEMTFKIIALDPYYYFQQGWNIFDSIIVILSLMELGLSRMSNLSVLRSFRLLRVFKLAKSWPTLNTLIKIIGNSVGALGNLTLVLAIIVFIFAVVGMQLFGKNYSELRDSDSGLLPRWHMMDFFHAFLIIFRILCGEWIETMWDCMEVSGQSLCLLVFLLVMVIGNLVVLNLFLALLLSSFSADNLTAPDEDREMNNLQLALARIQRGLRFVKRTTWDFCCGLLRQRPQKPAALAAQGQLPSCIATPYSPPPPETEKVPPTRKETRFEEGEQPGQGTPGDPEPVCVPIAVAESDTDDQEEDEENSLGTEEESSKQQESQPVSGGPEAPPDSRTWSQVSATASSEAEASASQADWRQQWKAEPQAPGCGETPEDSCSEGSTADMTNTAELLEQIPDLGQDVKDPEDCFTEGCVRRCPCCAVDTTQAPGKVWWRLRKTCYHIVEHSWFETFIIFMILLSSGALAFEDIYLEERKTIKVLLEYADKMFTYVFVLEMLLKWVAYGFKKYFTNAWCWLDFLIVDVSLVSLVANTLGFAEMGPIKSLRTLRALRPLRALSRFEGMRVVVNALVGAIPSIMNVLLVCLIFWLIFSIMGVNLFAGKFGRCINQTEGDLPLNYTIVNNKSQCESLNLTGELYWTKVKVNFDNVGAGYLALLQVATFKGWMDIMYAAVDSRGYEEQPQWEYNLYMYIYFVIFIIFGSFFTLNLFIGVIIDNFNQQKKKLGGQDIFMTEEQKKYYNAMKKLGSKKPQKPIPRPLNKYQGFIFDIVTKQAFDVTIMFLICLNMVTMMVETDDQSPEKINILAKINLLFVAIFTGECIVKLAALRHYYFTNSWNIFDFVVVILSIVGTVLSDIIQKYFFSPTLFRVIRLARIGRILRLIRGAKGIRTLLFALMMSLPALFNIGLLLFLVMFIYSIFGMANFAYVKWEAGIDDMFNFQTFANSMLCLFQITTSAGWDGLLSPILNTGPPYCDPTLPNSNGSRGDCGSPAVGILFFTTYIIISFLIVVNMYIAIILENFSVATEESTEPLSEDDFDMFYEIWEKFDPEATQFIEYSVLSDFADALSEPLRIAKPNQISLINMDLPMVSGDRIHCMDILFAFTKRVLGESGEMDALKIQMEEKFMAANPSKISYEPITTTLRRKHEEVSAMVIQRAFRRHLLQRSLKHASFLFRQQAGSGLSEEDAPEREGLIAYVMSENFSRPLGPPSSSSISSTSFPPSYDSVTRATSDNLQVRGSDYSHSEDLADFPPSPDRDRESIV
T2 sequence (P08912 whole entry): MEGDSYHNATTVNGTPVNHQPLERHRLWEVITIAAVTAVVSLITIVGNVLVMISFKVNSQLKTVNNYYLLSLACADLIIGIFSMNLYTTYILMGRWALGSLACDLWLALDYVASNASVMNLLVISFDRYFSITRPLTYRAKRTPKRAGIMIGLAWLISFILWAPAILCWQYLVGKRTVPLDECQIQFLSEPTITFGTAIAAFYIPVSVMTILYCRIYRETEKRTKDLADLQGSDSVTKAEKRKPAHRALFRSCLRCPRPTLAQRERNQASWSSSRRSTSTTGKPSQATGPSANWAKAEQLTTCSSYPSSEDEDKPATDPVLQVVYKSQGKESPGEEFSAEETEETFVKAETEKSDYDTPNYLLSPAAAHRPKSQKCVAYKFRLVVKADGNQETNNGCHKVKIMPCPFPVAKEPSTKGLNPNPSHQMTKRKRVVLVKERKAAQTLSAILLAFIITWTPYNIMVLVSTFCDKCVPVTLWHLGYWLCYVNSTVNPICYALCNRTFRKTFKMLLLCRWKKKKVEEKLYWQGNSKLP
T4 sequence (P63252 whole entry): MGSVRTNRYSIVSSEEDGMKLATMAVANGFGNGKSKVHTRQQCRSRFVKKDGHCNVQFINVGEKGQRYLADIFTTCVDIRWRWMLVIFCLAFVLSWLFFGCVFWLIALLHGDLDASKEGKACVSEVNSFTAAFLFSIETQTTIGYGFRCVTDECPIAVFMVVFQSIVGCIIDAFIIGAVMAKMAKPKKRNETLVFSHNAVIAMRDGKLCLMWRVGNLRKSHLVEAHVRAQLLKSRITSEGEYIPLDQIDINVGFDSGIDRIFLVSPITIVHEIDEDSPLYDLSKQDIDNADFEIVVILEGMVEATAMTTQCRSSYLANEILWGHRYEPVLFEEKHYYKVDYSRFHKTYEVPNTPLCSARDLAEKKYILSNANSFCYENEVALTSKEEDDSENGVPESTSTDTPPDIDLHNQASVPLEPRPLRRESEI
T6 sequence (P28335 33-458): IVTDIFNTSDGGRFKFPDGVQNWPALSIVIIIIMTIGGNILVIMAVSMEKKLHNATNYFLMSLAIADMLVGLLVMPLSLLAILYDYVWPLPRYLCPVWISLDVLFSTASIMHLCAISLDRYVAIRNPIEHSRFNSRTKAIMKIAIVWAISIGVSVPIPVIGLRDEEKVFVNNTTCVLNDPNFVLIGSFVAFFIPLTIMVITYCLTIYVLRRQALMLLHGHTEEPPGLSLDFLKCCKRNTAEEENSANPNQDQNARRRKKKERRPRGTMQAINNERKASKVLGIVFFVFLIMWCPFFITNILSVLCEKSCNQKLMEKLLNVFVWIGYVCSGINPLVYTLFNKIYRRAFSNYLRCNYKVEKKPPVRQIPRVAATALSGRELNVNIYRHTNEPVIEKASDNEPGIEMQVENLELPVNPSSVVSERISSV

Compound: COc1cc(CC(C)N)c(OC)cc1I (racemic) [(±)DOI]
- IC50 [1]: 5 nM

Compound: C[N+]1(C)CCC(OC(=O)C(c2ccccc2)c2ccccc2)CC1 [4-DAMP]
- IC50 [2]: 0.52 nM

Compound: C[N+](C)(C)CCOC(N)=O [Carbachol, carbachol, reference compound]
- RR interval after carbachol ([3]; BP-G1 group, baseline 155.2 ± 16.3 ms): 474.2 ± 60.7 ms
- RR interval after carbachol ([3]; saline control group, baseline 168.6 ± 10.7 ms): 476.7 ± 77.8 ms

Compound: Cc1ccnc2cc3c(cc12)OC(C)(C)C=C3 [GAT1572, 2,2,9-trimethyl-2H-pyrano[2,3-g]quinoline]
- inhibitory activity on Kir3.1/4 channel [4]: not active

Compound: Cc1cc(CO)nc2cc3c(cc12)OC(C)(C)C=C3 [GAT1573, (2,2,9-trimethyl-2H-pyrano[2,3-g]quinolin-7-yl)methanol]
- inhibitory activity on Kir3.1/4 channel [4]: not active

Compound: Cc1ccnc2cc3c(cc12)OC(C)(C)[C@H](O)[C@H]3NCCc1ccccc1 [GAT1588, (3R,4S)-2,2,9-trimethyl-4-(phenethylamino)-3,4-dihydro-2H-pyrano[2,3-g]quinolin-3-ol]
- inhibitory activity on Kir3.1/4 channel [4]: retained comparable inhibitory activity to BP-G1; also recorded: inhibited the channel with comparable activity to BP-G1

Compound: Cc1cc(CO)nc2cc3c(cc12)OC(C)(C)[C@H](O)[C@H]3NCCc1ccccc1 [NTC-801]
- IC50 [5]: 8300 nM
- IC50 [6]: > 30000 nM
- IC50 [7]: > 30000 nM
- IC50 [8]: > 30000 nM
- IC50 [9]: > 30000 nM
- IC50 [10]: 7800 nM
- IC50 [11]: 7 nM
- IC50 [12]: > 30000 nM
- IC50 [13]: > 30000 nM
- IC50 [14]: 0.7 nM
- IC50 [15]: 34 nM
- IC50 [16]: > 11600 nM

Compound: COc1cc(OC)c(C(=O)CCCCN2CCC3(CC2)NC(=O)NC3=O)cc1NS(=O)(=O)c1ccc(C(F)(F)F)cc1 [RS 102221]
- IC50 [17]: 3.1 nM

Compound: Nc1ncnc2c1ncn2[C@@H]1O[C@H](COP(=O)(O)CP(=O)(O)OP(=O)(O)O)[C@@H](O)[C@H]1O [a,b-MeATP]
- IC50 [18]: 3.5 nM

Compound: Nc1ncnc2c1ncn2[C@H]1C[C@H](O)[C@@H](COP(O)(=S)OP(=O)(O)OP(=O)(O)O)O1 (stereo partly drawn) [dATPaS]
- IC50 [19]: 20 nM

Compound: CN1C(=O)CN=C(c2ccccc2)c2cc(Cl)ccc21 [diazepam]
- IC50 [20]: 8.6 nM

Compound: C=C(C)[C@@H]1[C@H]2OC(=O)[C@@H]1[C@]1(O)C[C@H]3O[C@]34C(=O)O[C@H]2[C@]14C [picrotoxinin, reference compound]
- IC50 [21]: 150 nM

Compound: COc1cc2nc(N3CCN(C(=O)c4ccco4)CC3)nc(N)c2cc1OC [prazosin]
- IC50 [22]: 0.182 nM

Compound: MIP-1a: assay reference compound
- IC50 [23]: 0.04 nM

Compound: TNF-a
- IC50 [24]: 0.1 nM

Compound: apamin (CNCKAPETALCARRCQQH; ends and bridges not checked; cysteine pairing not given here; UniProt P01500 28-45, looked up)
- IC50 [25]: 0.0091 nM

Compound: bombesin
- IC50 [26]: 0.205 nM

Compound: somatostatin-14
- IC50 [27]: 0.2 nM
